# Experimental data published in patent US7538132B2, “Isoxazolo derivatives” (Hoffman-La Roche Inc., priority 2005, dated 2009).
# Target: T1, GABA A receptor α5β3γ2 (hα5) (Homo sapiens, UniProt P18507+P31644)
# T1 construct: expressed in transfected cells; host or cells: HEK293 (transiently transfected; membranes prepared from cell pellets)
# Experiment: [3H]flumazenil competition binding assay, human GABA A α5β3γ2 receptors
# Conditions: displacement of [3H]flumazenil (0.5 nM) from membranes of HEK293 cells expressing human α5β3γ2; 1 hour at 4° C.; means of two determinations
# Protocol: The affinity of compounds at GABA A receptor subtypes was measured by competition for [3H]flumazenil (85 Ci/mmol; Roche) binding to HEK293 cells expressing rat (stably transfected) or human (transiently transfected) receptors of composition α1β3γ2, α2⊖3γ2, α3β3γ2 and α5β3γ2.
# Cell pellets were suspended in Krebs-tris buffer (4.8 mM KCl, 1.2 mM CaCl2, 1.2 mM MgCl2, 120 mM NaCl, 15 mM Tris; pH 7.5; binding assay buffer), homogenized by polytron for ca. 20 sec on ice and centrifuged for 60 min at 4° C. (50000 g; Sorvall, rotor: SM24=20000 rpm). The cell pellets were resuspended in Krebs-tris buffer and homogenized by polytron for ca. 15 sec on ice. Protein was measured (Bradford method, Bio-Rad) and aliquots of 1 mL were prepared and stored at −80° C.
# Assays were incubated to equilibrium for 1 hour at 4° C. and harvested onto GF/C uni-filters (Packard) by filtration using a Packard harvester and washing with ice-cold wash buffer (50 mM Tris; pH 7.5). After drying, filter-retained radioactivity was detected by liquid scintillation counting. Ki values were calculated using Excel-Fit (Microsoft) and are the means of two determinations.
row,SMILES,Ki [µM]
1,"Cc1onc(-c2ccc(F)cc2)c1C(=O)c1c[nH]c(C(=O)NCCO)c1 [Example 140, 4-[3-(4-Fluoro-phenyl)-5-methyl-isoxazole-4-carbonyl]-1H-pyrrole-2-carboxylic acid (2-hydroxy-ethyl)-amide]",0.0099
2,"Cc1onc(-c2ccccc2)c1C(=O)c1c[nH]c(C(=O)NCC2CC2)c1 [Example 12, 4-(5-Methyl-3-phenyl-isoxazole-4-carbonyl)-1H-pyrrole-2-carboxylic acid cyclopropylmethyl-amide]",0.0066
3,"Cc1onc(-c2ccccc2)c1C(=O)c1c[nH]c(C(=O)NC2CCC2)c1 [Example 15, 4-(5-Methyl-3-phenyl-isoxazole-4-carbonyl)-1H-pyrrole-2-carboxylic acid cyclobutylamide]",0.00795
4,"Cc1onc(-c2ccc(F)c(F)c2)c1C(=O)c1c[nH]c(C(=O)NC2CCCC2)c1 [Example 255, 4-[3-(3,4-Difluoro-phenyl)-5-methyl-isoxazole-4-carbonyl]-1H-pyrrole-2-carboxylic acid cyclopentylamide]",0.0064
5,"Cc1onc(-c2ccc(Cl)cc2)c1C(=O)c1c[nH]c(C(=O)NCc2ccco2)c1 [Example 160, 4-[3-(4-Chloro-phenyl)-5-methyl-isoxazole-4-carbonyl]-1H-pyrrole-2-carboxylic acid (furan-2-ylmethyl)-amide]",0.0069
6,"Cc1onc(-c2ccc(Br)cc2)c1C(=O)c1c[nH]c(C(=O)NC(C)C)c1 [Example 84, 4-[3-(4-Bromo-phenyl)-5-methyl-isoxazole-4-carbonyl]-1H-pyrrole-2-carboxylic acid isopropylamide]",0.00685
7,"Cc1onc(-c2ccc(Cl)cc2)c1C(=O)c1c[nH]c(C(=O)NCCO)c1 [Example 153, 4-[3-(4-Chloro-phenyl)-5-methyl-isoxazole-4-carbonyl]-1H-pyrrole-2-carboxylic acid (2-hydroxy-ethyl)-amide]",0.00755
8,"Cc1onc(-c2ccc(Br)cc2)c1C(=O)c1cc(C(=O)NC2CCOCC2)n(C)c1 [Example 231, 4-[3-(4-Bromo-phenyl)-5-methyl-isoxazole-4-carbonyl]-1-methyl-1H-pyrrole-2-carboxylic acid (tetrahydro-pyran-4-yl)-amide]",0.008
9,"Cc1onc(-c2ccc(Br)cc2)c1C(=O)c1cc(C(=O)NCCCN2CCOCC2)n(C)c1 [Example 232, 4-[3-(4-Bromo-phenyl)-5-methyl-isoxazole-4-carbonyl]-1-methyl-1H-pyrrole-2-carboxylic acid (3-morpholin-4-yl-propyl)-amide]",0.0087
10,"Cc1onc(-c2ccccc2F)c1C(=O)c1c[nH]c(C(=O)NC2CCCC2)c1 [Example 173, 4-[3-(2-Fluoro-phenyl)-5-methyl-isoxazole-4-carbonyl]-1H-pyrrole-2-carboxylic acid cyclopentylamide]",0.0063
11,"C#CCNC(=O)c1cc(C(=O)c2c(-c3ccc(F)cc3)noc2C)c[nH]1 [Example 145, 4-[3-(4-Fluoro-phenyl)-5-methyl-isoxazole-4-carbonyl]-1H-pyrrole-2-carboxylic acid prop-2-ynylamide]",0.00775
12,"C#CCNC(=O)c1cc(C(=O)c2c(-c3ccc(Cl)cc3)noc2C)c[nH]1 [Example 157, 4-[3-(4-Chloro-phenyl)-5-methyl-isoxazole-4-carbonyl]-1H-pyrrole-2-carboxylic acid prop-2-ynylamide]",0.00745
13,"Cc1onc(-c2cccc(F)c2)c1C(=O)c1c[nH]c(C(=O)NC2CCCC2)c1 [Example 178, 4-[3-(3-Fluoro-phenyl)-5-methyl-isoxazole-4-carbonyl]-1H-pyrrole-2-carboxylic acid cyclopentylamide]",0.0061

# Results, then the molecule that gave them:
row,Ki [µM],SMILES
1,0.00155,"Cc1onc(-c2ccc(F)cc2)c1C(=O)c1c[nH]c(C(=O)NC2CCOCC2)c1 [Example 146, 4-[3-(4-Fluoro-phenyl)-5-methyl-isoxazole-4-carbonyl]-1H-pyrrole-2-carboxylic acid (tetrahydro-pyran-4-yl)-amide]"
2,0.0036,"Cc1onc(-c2ccc(F)cc2)c1C(=O)c1c[nH]c(C(=O)NC2CCC2)c1 [Example 138, 4-[3-(4-Fluoro-phenyl)-5-methyl-isoxazole-4-carbonyl]-1H-pyrrole-2-carboxylic acid cyclobutylamide]"
3,0.00285,"Cc1onc(-c2ccccc2)c1C(=O)c1c[nH]c(C(=O)NC2CCOCC2)c1 [Example 26, 4-(5-Methyl-3-phenyl-isoxazole-4-carbonyl)-1H-pyrrole-2-carboxylic acid (tetrahydro-pyran-4-yl)-amide]"
4,0.0042,"Cc1onc(-c2ccc(F)c(F)c2)c1C(=O)c1c[nH]c(C(=O)NC2CCOCC2)c1 [Example 254, 4-[3-(3,4-Difluoro-phenyl)-5-methyl-isoxazole-4-carbonyl]-1H-pyrrole-2-carboxylic acid (tetrahydro-pyran-4-yl)-amide]"
5,0.0014,"Cc1onc(-c2ccc(Cl)cc2)c1C(=O)c1c[nH]c(C(=O)NC2CCOCC2)c1 [Example 162, 4-[3-(4-Chloro-phenyl)-5-methyl-isoxazole-4-carbonyl]-1H-pyrrole-2-carboxylic acid (tetrahydro-pyran-4-yl)-amide]"
6,0.0021,"CCc1onc(-c2ccccc2)c1C(=O)c1c[nH]c(C(=O)NC2CCCC2)c1 [Example 215, 4-(5-Ethyl-3-phenyl-isoxazole-4-carbonyl)-1H-pyrrole-2-carboxylic acid cyclopentylamide]"
7,0.0052,"Cc1onc(-c2ccc(Cl)cc2)c1C(=O)c1c[nH]c(C(=O)NC2CCCC2)c1 [Example 152, 4-[3-(4-Chloro-phenyl)-5-methyl-isoxazole-4-carbonyl]-1H-pyrrole-2-carboxylic acid cyclopentylamide]"
8,0.00245,"CCc1onc(-c2ccccc2)c1C(=O)c1c[nH]c(C(=O)NC2CCOCC2)c1 [Example 210, 4-(5-Ethyl-3-phenyl-isoxazole-4-carbonyl)-1H-pyrrole-2-carboxylic acid (tetrahydro-pyran-4-yl)-amide]"
9,0.00605,"Cc1onc(-c2ccc(F)cc2)c1C(=O)c1c[nH]c(C(=O)NCCc2cnc[nH]2)c1 [Example 141, 4-[3-(4-Fluoro-phenyl)-5-methyl-isoxazole-4-carbonyl]-1H-pyrrole-2-carboxylic acid [2-(1H-imidazol-4-yl)-ethyl]-amide]"
10,0.0041,"Cc1onc(-c2ccc(F)cc2)c1C(=O)c1c[nH]c(C(=O)NC2CC2)c1 [Example 137, 4-[3-(4-Fluoro-phenyl)-5-methyl-isoxazole-4-carbonyl]-1H-pyrrole-2-carboxylic acid cyclopropylamide]"
11,0.0023,"CCc1onc(-c2ccccc2)c1C(=O)c1c[nH]c(C(=O)NCC2CC2)c1 [Example 216, 4-(5-Ethyl-3-phenyl-isoxazole-4-carbonyl)-1H-pyrrole-2-carboxylic acid cyclopropylmethyl-amide]"
12,0.0045,"Cc1onc(-c2ccc(Br)cc2)c1C(=O)c1c[nH]c(C(=O)NC2CCOC(C)(C)C2)c1 (centres unmarked) [Example 135, 4-[3-(4-Bromo-phenyl)-5-methyl-isoxazole-4-carbonyl]-1H-pyrrole-2-carboxylic acid (2,2-dimethyl-tetrahydro-pyran-4-yl)-amide]"
13,0.0061,"Cc1onc(-c2ccc(Cl)cc2)c1C(=O)c1c[nH]c(C(=O)NC2CC2)c1 [Example 154, 4-[3-(4-Chloro-phenyl)-5-methyl-isoxazole-4-carbonyl]-1H-pyrrole-2-carboxylic acid cyclopropylamide]"
14,0.00165,"Cc1onc(-c2ccc(F)cc2)c1C(=O)c1c[nH]c(C(=O)NC2CCCC2)c1 [Example 136, 4-[3-(4-Fluoro-phenyl)-5-methyl-isoxazole-4-carbonyl]-1H-pyrrole-2-carboxylic acid cyclopentylamide]"
15,0.0043,"COCc1onc(-c2ccc(F)cc2)c1C(=O)c1c[nH]c(C(=O)NC2CCOCC2)c1 [Example 221, 4-[3-(4-Fluoro-phenyl)-5-methoxymethyl-isoxazole-4-carbonyl]-1H-pyrrole-2-carboxylic acid (tetrahydro-pyran-4-yl)-amide]"
16,0.00365,"Cc1onc(-c2ccc(Br)cc2)c1C(=O)c1c[nH]c(C(=O)NC2CCOCC2)c1 [Example 61, 4-[3-(4-Bromo-phenyl)-5-methyl-isoxazole-4-carbonyl]-1H-pyrrole-2-carboxylic acid (tetrahydro-pyran-4-yl)-amide]"
17,0.00485,"CCc1onc(-c2ccccc2)c1C(=O)c1c[nH]c(C(=O)NC2CC2)c1 [Example 217, 4-(5-Ethyl-3-phenyl-isoxazole-4-carbonyl)-1H-pyrrole-2-carboxylic acid cyclopropylamide]"
18,0.0045,"Cc1onc(-c2ccc(Br)cc2)c1C(=O)c1c[nH]c(C(=O)N[C@H]2CC[C@H](O)CC2)c1 [Example 123, 4-[3-(4-Bromo-phenyl)-5-methyl-isoxazole-4-carbonyl]-1H-pyrrole-2-carboxylic acid (4-hydroxy-cyclohexyl)-amide]"
19,0.00385,"Cc1onc(-c2ccc(Cl)cc2)c1C(=O)c1c[nH]c(C(=O)NCC2CC2)c1 [Example 156, 4-[3-(4-Chloro-phenyl)-5-methyl-isoxazole-4-carbonyl]-1H-pyrrole-2-carboxylic acid cyclopropylmethyl-amide]"
